Reference: patent publication US20250143289A1, “BIO-CONTROL COMBINATIONS, COMPOSITIONS AND METHOD OF USE” (DECCO WORLDWIDE POST-HARVEST HOLDINGS B.V., priority 2022, published 2025)

Test system: Penicillium digitatum (Pd)
Assay: Biocontrol efficacy on post-harvest green mold decay of harvested oranges (online spraying, drying tunnel, storage)
Format: in vivo
Details: online spraying at 2 L/tonne of fruits, dried in drying tunnel, observed 36 days after storage, amounts per treatment as in Table 1
Protocol: A tank mix bio-control combination was prepared consisting of Candida oleophila strain O and sodium bicarbonate. […] The microbial component was applied as water dispersible granules. The concentration of C. oleophila strain O was 2.33 g/L (0.23% w/v) and the biologically effective amount of the strain was 3×10^10 cfu/gm. The concentration of the C. oleophila strain O used was varying between 0.1 to 5% w/v of the combination.
The biocontrol efficacy of the combination of the present invention on post-harvest fungal disease caused by green mold was evaluated. […] The harvested oranges were treated with the biocontrol combination and then subjected to drying in a drying tunnel. […] The oranges were treated by online spraying of each treatment. The biologically effective amount of Candida oleophila is 3×10^10 cfu/g of the combination. Each application is made at a rate 2 L/tonne of citrus fruits. The observations were made on the treated oranges and the untreated control at 36 days after storage.

O=C([O-])O.[Na+] [Sodium bicarbonate]
% decay on fruits: 15%
